Our source for the IC50 values is the Kinase Knowledgebase extract (Sharma et al. 2016).

SMILES strings stand for the structures.

Test [1] concerns the target MAPK14 (human) (UniProt Q16539). As to the kind of experiment: Inhibition of TNF-alpha Production from LPS Stimulated PBMC.
The target is the same in test [2]. As to the kind of experiment: Inhibition of IL-1beta Production from LPS Stimulated PBMC.
Test [3] has the same target. As to the kind of experiment: Inhibition of TNF-alpha Release in LPS Stimulated Whole Blood Culture. To be noted: blood cells.
Test [4] shares this target. Kind of test: Inhibition of IL-1 beta Release from LPS Stimulated Whole Blood Culture. As to conditions: blood cells.
Test [5] has the same target. Kind of test: Inhibition of MAPK14 Kinase Activity.

MAPK14 (human), sequence (Q16539 whole entry, looked up): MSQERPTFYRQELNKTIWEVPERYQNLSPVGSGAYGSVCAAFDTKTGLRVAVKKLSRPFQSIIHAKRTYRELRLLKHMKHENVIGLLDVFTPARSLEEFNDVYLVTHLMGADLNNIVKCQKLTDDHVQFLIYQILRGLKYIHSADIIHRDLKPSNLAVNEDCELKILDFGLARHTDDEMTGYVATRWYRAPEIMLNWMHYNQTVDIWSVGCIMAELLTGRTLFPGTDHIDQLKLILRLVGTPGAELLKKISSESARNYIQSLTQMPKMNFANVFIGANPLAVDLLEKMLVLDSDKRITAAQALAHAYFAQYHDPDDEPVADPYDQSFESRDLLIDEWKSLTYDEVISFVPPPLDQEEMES

Broadly, the IC50 is the point on the concentration scale where inhibition reaches its midpoint. Turning to `CSc1nc(-c2ccc(F)cc2)c(-c2cc[nH]c(=O)c2)[nH]1`, the IC50 at MAPK14 (human) [1] is 3100 nM; on MAPK14 (human) [2] it was 500 nM.

In the case of `COc1ccc(CNc2cc(-c3[nH]c(SC)nc3-c3ccc(F)cc3)ccn2)cc1`, the figures for the IC50 on MAPK14 (human) [1] and against MAPK14 (human) [2] were 640 nM and 56 nM, respectively.

For the compound `CSc1nc(-c2ccc(F)cc2)c(-c2ccnc(OC(C)C)c2)[nH]1`, the IC50 amounted to 7200 nM against MAPK14 (human) [3], 4600 nM against MAPK14 (human) [1], 2700 nM against MAPK14 (human) [2] and 2200 nM on MAPK14 (human) [4].

As for `CSc1nc(-c2ccc(F)cc2)c(-c2ccnc(F)c2)[nH]1`, the IC50 against MAPK14 (human) [1] was 2800 nM; on MAPK14 (human) [2], 300 nM.

`CSc1nc(-c2ccc(F)cc2)c(-c2ccnc(NCc3ccc(C)cc3)c2)[nH]1`: the IC50 is 17300 nM against MAPK14 (human) [3], 670 nM at MAPK14 (human) [1], 85 nM on MAPK14 (human) [2] and 22300 nM against MAPK14 (human) [4].

In the case of `C[S+]([O-])c1ccc(CSc2nc(-c3ccc(F)cc3)c(-c3ccnc(Cl)c3)[nH]2)cc1` (centres undefined), the values for the IC50 against MAPK14 (human) [1] and against MAPK14 (human) [2] were 12000 nM and 2100 nM, respectively.

`Fc1ccc(-c2nc(SCc3ccccc3)[nH]c2-c2ccnc(F)c2)cc1`: the results for the IC50 against MAPK14 (human) [1] and against MAPK14 (human) [2] were 40500 nM and 2900 nM, respectively.

Regarding `COc1cc(-c2[nH]c(SC)nc2-c2ccc(F)cc2)ccn1`, the IC50 was 1900 nM at MAPK14 (human) [1] and 150 nM against MAPK14 (human) [2].

On to `Fc1ccc(-c2nc(SCc3ccccc3)[nH]c2-c2ccnc(Cl)c2)cc1`, for which the IC50 against MAPK14 (human) [1] amounted to 60000 nM; on MAPK14 (human) [2], 1800 nM.

On to `CSc1nc(-c2ccc(F)cc2)c(-c2ccnc(NCc3ccccc3)c2)[nH]1`, for which the IC50 on MAPK14 (human) [1] amounted to 630 nM; against MAPK14 (human) [2] it was 108 nM; at MAPK14 (human) [5] it was 650 nM.

With `CSc1nc(-c2ccc(F)cc2)c(-c2ccnc(NCc3ccc(Cl)c(Cl)c3)c2)[nH]1`, the figures for the IC50 against MAPK14 (human) [1] and against MAPK14 (human) [2] were 720 nM and 230 nM, respectively.

As for `C[S+]([O-])c1ccc(CSc2nc(-c3ccc(F)cc3)c(-c3ccnc(F)c3)[nH]2)cc1` (centres undefined), the IC50 on MAPK14 (human) [1] amounted to 6900 nM; at MAPK14 (human) [2] it was 2450 nM.

On to `CSc1nc(-c2ccc(F)cc2)c(-c2ccnc(Cl)c2)[nH]1`, for which the IC50 on MAPK14 (human) [1] came out at 2200 nM; on MAPK14 (human) [2], 350 nM.

For the compound `CC(Nc1cc(-c2[nH]c(SCc3ccccc3)nc2-c2ccc(F)cc2)ccn1)c1ccccc1` (centres undefined), the IC50 worked out at 2700 nM against MAPK14 (human) [1] and 45 nM against MAPK14 (human) [2].

On to `CSc1nc(-c2ccc(F)cc2)c(-c2ccnc(NCc3ccc(Cl)cc3)c2)[nH]1`, for which the IC50 against MAPK14 (human) [3] is 14800 nM; against MAPK14 (human) [1], 500 nM; on MAPK14 (human) [2], 150 nM; against MAPK14 (human) [4], 13300 nM.

Regarding `CC(Nc1cc(-c2[nH]c(SCc3ccc([S+](C)[O-])cc3)nc2-c2ccc(F)cc2)ccn1)c1ccccc1` (centres undefined), the IC50 at MAPK14 (human) [3] was 10000 nM; on MAPK14 (human) [1], 910 nM; at MAPK14 (human) [2], 40 nM; against MAPK14 (human) [5], 270 nM; on MAPK14 (human) [4] it was 15700 nM.

Regarding `COc1ccc(CNc2cc(-c3[nH]c(SCc4ccccc4)nc3-c3ccc(F)cc3)ccn2)cc1`, the IC50 against MAPK14 (human) [1] stood at 21000 nM; against MAPK14 (human) [2] it was 180 nM.

As to `CSc1nc(-c2ccc(F)cc2)c(-c2ccnc(NCCc3ccccc3)c2)[nH]1`, the 50% inhibitory concentration (IC50) against MAPK14 (human) [3] came out at 14900 nM; against MAPK14 (human) [1], 350 nM; against MAPK14 (human) [2] it was 31 nM; against MAPK14 (human) [4] it was 17100 nM.

For `CSc1nc(-c2ccc(F)cc2)c(-c2ccnc(Nc3ccccc3)c2)[nH]1`, the IC50 turned out to be 340 nM on MAPK14 (human) [1] and 30 nM at MAPK14 (human) [2].

With `Fc1ccc(-c2nc(SCc3ccccc3)[nH]c2-c2ccnc(NCc3ccccc3)c2)cc1`, the half-inhibitory concentration (IC50) on MAPK14 (human) [1] worked out at 3200 nM; against MAPK14 (human) [2], 200 nM.

Regarding `C[S+]([O-])c1ccc(CSc2nc(-c3ccc(F)cc3)c(-c3ccnc(NCc4ccccc4)c3)[nH]2)cc1` (centres undefined), the IC50 against MAPK14 (human) [1] came out at 2000 nM; on MAPK14 (human) [2] it was 470 nM.
